In data set [1] the test system is Rat Insulinoma cell lines (RIN-5F). The following applies: 24 h.
Procedure: Before starting the experiment it was needed to determine the cytotoxic dose for the Inula racemosa extract and theobromine. The cytotoxicity of both materials was determined as follows by Neutral red assay:
The Rat Insulinoma cell lines (RIN-5F, ATCC (USA)) was plated at a density of 3.5×10^4 cells/well (Volume 100 μL) in a 96 well plate (NEST Biotechnology Co. Ltd, Cat No 701001) and placed it in an incubator (Thermo Scientific, Model 3111; conditions: 5% CO2, at 37° C.) for 24 hours. After the incubation 10 μL of Inula racemosa water extract (at different concentration e.g. 10%, 1%, 0.1%, 0.01%, 0.001%, 0.0001% and 0.00001%) and 10 μL of theobromine solution (at different concentration e.g. 10%, 1%, 0.1%, 0.01%, 0.001%, 0.0001% and 0.00001%) were added to the culture and incubated for 24 hours in the same incubator. As a control in some wells there was no addition of either Inula racemosa or theobromine (only medium and cells). […]
The bound stain was extracted out from the cells by adding 150 μL of desorption solution and dissolved the dye completely. […] The absorbance of the stain extracted out from the cells was measured at 540 nm in a microwell plate reader (BIO-RAD LAB INDIA, Model No. 680).
The percentage of live cells was calculated using the below mentioned formula: […]
Data set [2] shares this test system. The experiment in a line: β-cell assay for protection against gluco-lipo toxicity (diabetes model). Type of data set: cell-based. Conditions: RIN-5F cells treated with glucose and Palmitate-BSA complex, 18 hrs, neutral red; change with respect to Control 2 (glucose and Palmitate only); wt % of ingredients as per example.
Procedure: This RPMI 1640 medium contains 2 g/L of glucose supplemented with 25 mM HEPES (4-(2-hydroxyethyl)-1-piperazineethanesulfonic acid, SRL Cat No: 084023C).
After that a complete medium was prepared by adding 100 μL of 100 mM Sodium pyruvate (Sigma, Cat No: P5280) and 10% (vv) in 100 mL of RPMI 1640.
100 μL/well of complete medium with the added Rat Insulinoma cell (RIN-5F, ATCC (USA)) was plated in a 96 well flat bottom plate (NEST Biotechnology Co. Ltd, Cat No 701001) so that the cell concentration is maintained at a level of 3.5×10^4 cells/well. This plate was then introduced in an incubator (Thermo Scientific, Model 3111; conditions: 5% CO2, at 37° C.) for 24 hours.
2.267 g of ultra Fatty Acid Free BSA (Roche applied sciences, Cat No: 03117405001) was added to 100 mL of 150 mM NaCl and stirred constantly at a maintained temperature of ˜37° C. […] After that this solution was filtered with a syringe filter of pore size of 0.22 μm (Millipore®, Cat no: SLGPO33RS). • 3. […]
After 4 hrs the neutral red medium was removed by aspiration using a micropipette and cells were washed with 100 μL/well of PBS solution (same as prepared above) to remove the excess stain. […] The colorimetric reading (absorbance) of the bound stain was read at a wavelength of 540 nm in a microwell plate reader (BIO-RAD LAB INDIA, Model No. 680). The efficacy of the test ingredients were evaluated with respect to the Control 2.

Two compounds from patent US9393276B2, “Edible composition” (Conopco,Inc., priority 2012, dated 2016) can be followed below.

Structures are written as SMILES.

In data set [1], `Cn1cnc2c1c(=O)[nH]c(=O)n2C` [theobromine, 3,7-dimethylxanthine] yielded a non-cytotoxic concentration of no more than 0.001%.
As to `Cn1cnc2c1c(=O)[nH]c(=O)n2C` [E, Theobromine], the “% change in cell viability” value in data set [2] was found to be 5 ± 2%.
